This is an account of results in BindingDB's records for doi:10.1016/j.bmcl.2010.01.039 (Institute of Science and Technology, 2010).

The assay deals with T1, Receptor-type tyrosine-protein kinase FLT3 (Homo sapiens, UniProt P36888).
T1 sequence (P36888 whole entry): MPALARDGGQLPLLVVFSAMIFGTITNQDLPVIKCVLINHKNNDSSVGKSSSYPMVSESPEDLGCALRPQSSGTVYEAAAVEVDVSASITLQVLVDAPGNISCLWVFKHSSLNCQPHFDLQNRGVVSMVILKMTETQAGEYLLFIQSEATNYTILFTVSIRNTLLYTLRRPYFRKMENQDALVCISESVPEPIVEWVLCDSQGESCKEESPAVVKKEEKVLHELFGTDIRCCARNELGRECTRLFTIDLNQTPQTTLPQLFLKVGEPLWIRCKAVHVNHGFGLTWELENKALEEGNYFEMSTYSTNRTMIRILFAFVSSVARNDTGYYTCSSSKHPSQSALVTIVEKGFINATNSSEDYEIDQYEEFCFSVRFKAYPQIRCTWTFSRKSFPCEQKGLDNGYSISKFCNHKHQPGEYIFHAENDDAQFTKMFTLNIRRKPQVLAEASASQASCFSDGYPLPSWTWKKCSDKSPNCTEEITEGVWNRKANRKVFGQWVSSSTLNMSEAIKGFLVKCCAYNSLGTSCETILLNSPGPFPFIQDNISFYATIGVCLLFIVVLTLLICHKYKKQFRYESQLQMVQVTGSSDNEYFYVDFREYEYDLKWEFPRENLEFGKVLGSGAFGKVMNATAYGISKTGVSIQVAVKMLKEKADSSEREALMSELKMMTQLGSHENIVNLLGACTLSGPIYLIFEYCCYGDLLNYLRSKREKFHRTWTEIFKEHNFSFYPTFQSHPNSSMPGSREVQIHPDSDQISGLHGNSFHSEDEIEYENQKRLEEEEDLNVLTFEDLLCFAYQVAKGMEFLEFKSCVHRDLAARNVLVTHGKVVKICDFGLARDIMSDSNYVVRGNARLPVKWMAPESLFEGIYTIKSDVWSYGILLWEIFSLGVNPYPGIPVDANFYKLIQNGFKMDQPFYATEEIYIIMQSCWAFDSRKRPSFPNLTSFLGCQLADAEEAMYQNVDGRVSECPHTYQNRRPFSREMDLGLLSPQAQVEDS
The assay is described as follows: Inhibition of FLT3 by HTRF assay.

For `O=Nc1c(C2C(=O)Nc3ccc([N+](=O)[O-])cc32)[nH]c2ccc(Br)cc12` (centres undefined) [(Z)-5-Bromo-5'-nitro-1H,1'H-[2,3']biindolylidene-3,2'-dione 3-oxime], the IC50 is > 10 µM.

Regarding `Cc1cc(Cl)cc2c1NC(=O)C2c1[nH]c2ccccc2c1N=O` (centres undefined) [5'-Chloro-7'-methyl-1H,1'H-[2,3']biindolylidene-3,2'-dione 3-oxime], the IC50 was > 10 µM. On to `O=C1N=c2ccc([N+](=O)[O-])cc2=C1c1[nH]c2ccccc2c1O` [(Z)-5'-Nitro-1H,1'H-[2,3']biindolylidene-3,2'-dione], for which the IC50 is > 10 µM. Next, `O=Nc1c(C2C(=O)Nc3ccc(OC(F)(F)F)cc32)[nH]c2ccccc12` (centres undefined) [5'-Trifluoromethoxy-1H,1'H-[2,3']biindolylidene-3,2'-dione 3-oxime]: > 10 µM.
